One experiment concerns PC3 cells. Put plainly: PC3 growth inhibition (Cell-titer glo, 72 hours). The format is cell-based. To be noted: Homo sapiens, PC-3, PC3 cells, 72 hours, Cell-titer glo, read-out: Percent Inhibition (PC3 growth inhibition); for inhibition at 1 µM: compound concentration 1 μM; for inhibition at 1.667 µM: compound concentration 1.667 μM. The procedure, abridged:
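PC3 cells in RPMI1640 seeded overnight at 37 °C, 5% CO2, then exposed to compound diluted in AIM serum-free medium for 72 h. Viability by CellTiter-Glo luminescence vs DMSO controls; single-concentration % remaining viability (1 μM or 1.667 μM), or GI50/LD50 from curves.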

The next experiment addresses hNAMPT protein (Homo sapiens (Human), UniProt P43490). Put plainly: NAMPT enzyme assay (TR-FRET/HTRF, BodiPY ligand, anti 6His-Tb). The format is binding. To be noted: for IC50: NAMPT IC50 range class, read-out: IC50; for inhibition at 1 µM: read-out: Percent Inhibition. The procedure, abridged: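 TR-FRET binding assay in which His-tagged human NAMPT with anti-6His-Tb is displaced by compound from a BodiPY ligand, incubated 1 h at rt in the dark. Excitation was at 320 nm, with the 520/486 nm emission ratio read. IC50 was fitted from inhibition relative to DMSO controls.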
Background: Time-resolved FRET reads energy transfer from a long-lived donor to a nearby acceptor.

What is called inhibition is the relative decrease from the control value, in per cent. One may read the IC50 as the midpoint of a concentration-inhibition curve.

Like-named read-outs stand apart in the source and are kept apart here. Where only a bound is given, the exact number is not on record here.

Sequence of hNAMPT protein (P43490 whole entry): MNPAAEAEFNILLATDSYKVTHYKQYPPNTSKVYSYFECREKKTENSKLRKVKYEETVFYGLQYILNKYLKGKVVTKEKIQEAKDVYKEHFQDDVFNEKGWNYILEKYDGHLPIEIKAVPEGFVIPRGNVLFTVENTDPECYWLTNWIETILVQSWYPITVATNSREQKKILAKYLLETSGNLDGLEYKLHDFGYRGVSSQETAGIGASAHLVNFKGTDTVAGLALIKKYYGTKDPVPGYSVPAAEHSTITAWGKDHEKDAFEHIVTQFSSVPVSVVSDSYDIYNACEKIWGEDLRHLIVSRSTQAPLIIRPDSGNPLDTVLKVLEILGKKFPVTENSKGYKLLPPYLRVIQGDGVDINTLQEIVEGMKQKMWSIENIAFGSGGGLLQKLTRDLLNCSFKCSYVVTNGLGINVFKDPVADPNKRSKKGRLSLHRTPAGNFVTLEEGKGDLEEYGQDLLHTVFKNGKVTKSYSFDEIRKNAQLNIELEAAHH

`CC(C)(C)OC(=O)N1CCC(C2CCN(c3nc4ccc(C(=O)NCCCn5ccnc5)cc4nc3-c3ccccc3)CC2)CC1` [Compound I-188, tert-butyl 1′-(6-{[3-(1H-imidazol-1-yl)propyl]carbamoyl}-3-phenylquinoxalin-2-yl)-4,4′-bipiperidine-1-carboxylate]: the inhibition at 1 µM in the experiment with PC3 cells was -7%; at hNAMPT protein (compound concentration 1 μM) it was 83%. Besides, the IC50 at hNAMPT protein is 100 to 500 nM.

Take `COc1cccc(-c2nc3cc(C(=O)NCCc4cccnc4)ccc3nc2N2CCOCC2)c1` [Compound I-189, 3-(3-methoxyphenyl)-2-(morpholin-4-yl)-N-[2-(pyridin-3-yl)ethyl]quinoxaline-6-carboxamide]: the inhibition at 1.667 µM in the experiment on PC3 cells was found to be 2%. Besides, the IC50 on hNAMPT protein was under 100 nM. For the same compound, the inhibition at 1 µM at hNAMPT protein (compound concentration 1 μM) came out at 91%.

On to `NC(=O)c1ccc(-c2nc3ccc(C(=O)NCCCn4ccnc4)cc3nc2-c2ccccc2)cc1` [Compound I-190, 2-(4-carbamoylphenyl)-N-[3-(1H-imidazol-1-yl)propyl]-3-phenylquinoxaline-6-carboxamide], for which the inhibition at 1 µM in the experiment with PC3 cells was -6%; on hNAMPT protein (compound concentration 1 μM), 74%. Moreover, on hNAMPT protein, the IC50 lay in the range of 100 to 500 nM.

Consider `O=C(NCCCn1ccnc1)c1ccc2nc(-c3ccccc3)c(NCc3ccccc3)nc2c1` [Compound I-191, 3-(benzylamino)-N-[3-(1H-imidazol-1-yl)propyl]-2-phenylquinoxaline-6-carboxamide], for which the results for the inhibition at 1 µM with PC3 cells and at hNAMPT protein (compound concentration 1 μM) were 24% and 16%, respectively. Moreover, the concentration for half-maximal inhibition (IC50) on hNAMPT protein fell in the range of 2000 to 10000 nM.

Regarding `O=C(NCCCc1c[nH]cn1)c1ccc2nc(-c3ccc(F)cc3)c(-c3ccc(F)cc3)nc2c1` [Compound I-192, 2,3-bis(4-fluorophenyl)-N-[3-(1H-imidazol-4-yl)propyl]quinoxaline-6-carboxamide], the results for the inhibition at 1 µM with PC3 cells and on hNAMPT protein (compound concentration 1 μM) were -7% and 78%, respectively. For the same compound, the half-inhibitory concentration (IC50) on hNAMPT protein lay within 100 to 500 nM.

As to `O=C(NCCCc1cncnc1)c1ccc2nc(N3CCOCC3)c(-c3ccc(F)cc3)nc2c1` [Compound I-193, 3-(4-Fluorophenyl)-2-(morpholin-4-yl)-N-[3-(pyrimidin-5-yl)propyl]quinoxaline-6-carboxamide], the inhibition at 1.667 µM in the experiment with PC3 cells is over 99%. Moreover, at hNAMPT protein, the IC50 was 100 to 500 nM and the inhibition at 1 µM was found to be 73%.

For `Cn1cccc1-c1nc2cc(C(=O)NCCCn3ccnc3)ccc2nc1-c1ccccc1` [Compound I-194, N-[3-(1H-imidazol-1-yl)propyl]-3-(1-methyl-1H-pyrrol-2-yl)-2-phenylquinoxaline-6-carboxamide], the inhibition at 1 µM is 29% in the experiment with PC3 cells and 30% at hNAMPT protein (compound concentration 1 μM). Moreover, on hNAMPT protein, the IC50 lay within 2000 to 10000 nM.

For `O=C(NCCCc1ncc[nH]1)c1ccc2nc(N3CCCCC3)c(-c3cccs3)nc2c1` [Compound I-195, N-[3-(1H-imidazol-2-yl)propyl]-2-(piperidin-1-yl)-3-(2-thienyl)quinoxaline-6-carboxamide], the inhibition at 1.667 µM in the experiment on PC3 cells stood at 2%. For the same compound, the IC50 at hNAMPT protein was under 100 nM. Moreover, at hNAMPT protein (compound concentration 1 μM), the inhibition at 1 µM was over 99%.

In the case of `COc1cccc(-c2nc3cc(C(=O)NCCc4cccnc4)ccc3nc2N2CCCCC2)c1` [Compound I-196, 3-(3-methoxyphenyl)-2-(piperidin-1-yl)-N-[2-(pyridin-3-yl)ethyl]quinoxaline-6-carboxamide], in the experiment with PC3 cells, the inhibition at 1.667 µM was determined as 2%. Also, the IC50 at hNAMPT protein was under 100 nM. Besides, the inhibition at 1 µM at hNAMPT protein (compound concentration 1 μM) was found to be 98%.

For `COc1cccc(-c2nc3cc(C(=O)NCCCc4cccnc4)ccc3nc2N2CCCCC2)c1` [Compound I-197, 3-(3-methoxyphenyl)-2-(piperidin-1-yl)-N-[3-(pyridin-3-yl)propyl]quinoxaline-6-carboxamide], in the experiment with PC3 cells, the inhibition at 1.667 µM was 2%. For the same compound, at hNAMPT protein, the IC50 is under 100 nM. Further, the inhibition at 1 µM on hNAMPT protein (compound concentration 1 μM) was over 99%.

Consider `O=C(NCCCc1ncc[nH]1)c1ccc2nc(N3CCCCC3)c(-c3ccc(Cl)cc3)nc2c1` [Compound I-198, 3-(4-chlorophenyl)-N-[3-(1H-imidazol-2-yl)propyl]-2-(piperidin-1-yl)quinoxaline-6-carboxamide], for which, in the experiment with PC3 cells, the inhibition at 1.667 µM was 3%. Besides, the IC50 at hNAMPT protein is under 100 nM. Moreover, at hNAMPT protein (compound concentration 1 μM), the inhibition at 1 µM is over 99%.

For the compound `O=C(NCCCn1ccnc1)c1ccc2nc(N3CCC(N4CCOCC4)CC3)c(-c3ccccc3)nc2c1` [Compound I-199, N-[3-(1H-imidazol-1-yl)propyl]-2-[4-(morpholin-4-yl)piperidin-1-yl]-3-phenylquinoxaline-6-carboxamide], the inhibition at 1 µM in the experiment on PC3 cells stood at 0%; on hNAMPT protein (compound concentration 1 μM) it was 101%. In addition, the IC50 at hNAMPT protein is under 100 nM.

`Cn1cc2c(n1)CN(c1nc3ccc(C(=O)NCCCn4ccnc4)cc3nc1-c1ccccc1)CC2` [Compound I-200, N-[3-(1H-imidazol-1-yl)propyl]-2-(2-methyl-2,4,5,7-tetrahydro-6H-pyrazolo[3,4-c]pyridin-6-yl)-3-phenylquinoxaline-6-carboxamide]: the inhibition at 1 µM in the experiment with PC3 cells is -7%; on hNAMPT protein (compound concentration 1 μM), 85%. The IC50 on hNAMPT protein was in the range of 100 to 500 nM.

Turning to `O=C(NCCCn1ccnc1)c1ccc2nc(-c3cccnc3)c(-c3ccccc3)nc2c1` [Compound I-201, N-[3-(1H-imidazol-1-yl)propyl]-3-phenyl-2-(pyridin-3-yl)quinoxaline-6-carboxamide], the inhibition at 1 µM with PC3 cells was -7%; on hNAMPT protein (compound concentration 1 μM), 62%. The IC50 on hNAMPT protein lay in the range of 500 to 1000 nM.

`O=C(NCCCc1ncc[nH]1)c1ccc2nc(C3=CCC(O)CC3)c(-c3cccs3)nc2c1` (stereo not drawn) [Compound I-202, 2-(4-Hydroxycyclohex-1-en-1-yl)-N-[3-(1H-imidazol-2-yl)propyl]-3-(2-thienyl)quinoxaline-6-carboxamide]: in the experiment with PC3 cells, the inhibition at 1.667 µM was 2%. Moreover, at hNAMPT protein, the IC50 is under 100 nM. Also, on hNAMPT protein (compound concentration 1 μM), the inhibition at 1 µM was over 99%.

For `Cn1ccc(-c2nc3ccc(C(=O)NCCCn4ccnc4)cc3nc2-c2ccccc2)n1` [Compound I-203, N-[3-(1H-imidazol-1-yl)propyl]-2-(1-methyl-1H-pyrazol-3-yl)-3-phenylquinoxaline-6-carboxamide], the inhibition at 1 µM is -8% in the experiment on PC3 cells and 37% at hNAMPT protein (compound concentration 1 μM). At hNAMPT protein, the IC50 lay within 1000 to 2000 nM.

As to `O=C(NCc1cn2cccnc2n1)c1ccc2nc(N3CCC(N4CCOCC4)CC3)c(-c3ccc(F)cc3)nc2c1` [Compound I-204, 3-(4-fluorophenyl)-N-(imidazo[1,2-a]pyrimidin-2-ylmethyl)-2-[4-(morpholin-4-yl)piperidin-1-yl]quinoxaline-6-carboxamide], the inhibition at 1.667 µM with PC3 cells was found to be 63%. In addition, the IC50 at hNAMPT protein was under 100 nM. In addition, at hNAMPT protein (compound concentration 1 μM), the inhibition at 1 µM is over 99%.

Take `CCOC(=O)CCc1ccc(-c2nc3ccc(C(=O)NCCCn4ccnc4)cc3nc2-c2ccccc2)cc1` [Compound I-205, ethyl 3-[4-(6-{[3-(1H-imidazol-1-yl)propyl]carbamoyl}-3-phenylquinoxalin-2-yl)phenyl]propanoate]: the inhibition at 1 µM with PC3 cells worked out at 104%; at hNAMPT protein (compound concentration 1 μM) it was 84%. The IC50 at hNAMPT protein is 100 to 500 nM.

As for `O=C(NCCCn1ccnc1)c1ccc2nc(N3CCCC3)c(-c3ccccc3)nc2c1` [Compound I-206, N-[3-(1H-imidazol-1-yl)propyl]-3-phenyl-2-(pyrrolidin-1-yl)quinoxaline-6-carboxamide], the inhibition at 1 µM in the experiment with PC3 cells is -7%; on hNAMPT protein (compound concentration 1 μM), 75%. Further, at hNAMPT protein, the IC50 is 100 to 500 nM.

The values above are taken from patent publication US10144742B2 (Millennium Pharmaceuticals, Inc., priority 2014, dated 2018).
